Laboratory results: US20100009956A1, “NOVEL SUBSTITUTED PYRIMIDINES AS CYSTEINE PROTEASE INHIBITORS” (Glaxo Group Limited , a corporation, priority 2006, published 2010)
pIC50: −log10 of the molar value. Counter-ions that a name gives are not always drawn. Like-named read-outs stand apart in the source and are kept apart here.

What was measured:
Cathepsin S = Cathepsin S (Homo sapiens, UniProt P25774); experiment: Cathepsin S enzymatic assay (assay 1); assay type: biochemical; conditions: human recombinant enzyme, KQKLR-AMC substrate, pH 6.5
Procedure: Assay 1) Determination of Falcipain-2, Falcipain-3, Vivapain-2, Cathepsin K Cathepsin S, Cathepsin L, and Cathepsin B Proteolytic Catalytic Activity
Assays for Falcipain-2, Falcipain-3, and Vivapain-2 are carried out with parasitic recombinant enzymes. Cathepsins K, S, L, and B are carried out with human recombinant enzymes. Standard assay conditions for the determination of kinetic constants used a fluorogenic peptide substrate, typically H-D-VLR-AFC (Falcipain-2, Falcipain-3, Vivapain-2), Z-FR-AFC (Cathepsin K, L, B), or KQKLR-AMC (Cathepsin S) and are determined in 100 mM sodium acetate, pH 5.5, containing 10 mM DTT and 0.5 mM CHAPS (Falcipain-2, Falcipain-3, Vivapain-2), and 100 mM sodium acetate, pH 5.5, containing 5 mM L-cysteine, 1 mM CHAPS and 5 mM EDTA (Cathepsin K, L, B), or 50 mM MES, pH 6.5, containing 0.5 mM CHAPS, 10 mM L-CYS, 5 mM EDTA (Cathepsin S). Stock substrate solutions are prepared at 20 mM in DMSO. The activity assays contained 30 uM substrate (Falcipain-2, Falcipain-3, Vivapain-2), 20 uM substrate (Cathepsin K), 25 uM substrate (Cathepsin B), 5 uM substrate (Cathepsin L), and 30 uM substrate (Cathepsin S). All assays contained 1% DMSO. […] All assays are conducted at ambient temperature as end point assays being quenched after 60 minutes with the exception of Cathepsin S at 90 minutes, with 16.6 uM E-64 in 1% DMSO. Product formation (AFC or AMC) is determined from fluorescence (excitation at 405 nm; emission at 530 nm, AFC, or excitation at 360 nm; emission at 460 nm, AMC) monitored with a LJL Aquest (Molecular Devices) fluorescent plate reader. In the case of kinetic reads (used in mechanism of action studies), the reaction is not quenched but is read in the plate reader every 3 minutes for approximately 90 minutes. In addition, the mechanism of action studies for Falcipain-2 utilize Z-LR-AMC as the substrate. Product formation is determined from the fluorescence of AMC, measured with a LJL Acquest (Molecular Devices) fluorescent plate reader (excitation at 360 nm; emission at 460 nm).
Potential inhibitors are evaluated using the quenched read (endpoint) method. Assays are carried out in the presence of variable concentrations of test compound. Reactions are initiated by addition of enzyme and substrate to wells containing inhibitor stamped in 100% DMSO. For endpoint assays, the reaction is quenched with the addition of E64. Dose response data is fit to an IC50 curve with preset fitting tools according to equation 1:
y=a+(b−a)/(1+(10^x/10^c)^d) (1)
where y is the response at a particular inhibitor concentration x, a is the minimum response value, b is the maximum response value, c is the IC50, and d is the slope of the IC50 curve. Assuming the compound is a competitive inhibitor, the apparent KI can be calculated from IC50, as shown in equation 2: […]

Cathepsin K = target: T1, Cathepsin K (Homo sapiens, UniProt P43235); experiment: Cathepsin K enzymatic assay (assay 1); assay type: biochemical; conditions: human recombinant enzyme, Z-FR-AFC substrate, pH 5.5
T1 sequence (P43235 115-329): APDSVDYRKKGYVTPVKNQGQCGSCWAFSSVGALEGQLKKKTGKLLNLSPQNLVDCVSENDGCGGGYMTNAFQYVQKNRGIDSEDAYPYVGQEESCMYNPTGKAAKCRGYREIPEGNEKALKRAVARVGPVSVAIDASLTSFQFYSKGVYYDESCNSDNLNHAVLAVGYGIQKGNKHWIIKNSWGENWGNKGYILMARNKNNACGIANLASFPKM
In short: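 Human recombinant cathepsin K was assayed with the fluorogenic substrate Z-FR-AFC at 20 uM in 100 mM sodium acetate, pH 5.5, with 5 mM L-cysteine, 1 mM CHAPS, 5 mM EDTA and 1% DMSO. Enzyme plus substrate was added to wells holding inhibitor in DMSO. After 60 minutes at ambient temperature, 16.6 uM E-64 quenched the reaction. AFC fluorescence (excitation 405 nm, emission 530 nm) was read, and IC50 came from a four-parameter dose-response fit.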

Falcipain-3 = Falcipain-3 (Plasmodium falciparum, UniProt Q8IIL0); experiment: Falcipain-3 enzymatic assay (assay 1); assay type: biochemical
In short: (§1)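 Recombinant parasite enzyme with 30 uM H-D-VLR-AFC in 100 mM sodium acetate pH 5.5, 10 mM DTT, 0.5 mM CHAPS, 1% DMSO, ambient temperature. Endpoint after 60 minutes, quenched with 16.6 uM E-64; AFC fluorescence (ex 405/em 530). IC50 from four-parameter fit, apparent KI assuming competitive inhibition.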

Falcipain-2 = Falcipain-2 (Plasmodium falciparum, UniProt Q8I6U4); experiment: Falcipain-2 enzymatic assay (assay 1); assay type: biochemical
In short: as §1

[1] = tested on: Plasmodium falciparum parasite; experiment: Whole cell assay (assay 2); assay type: cell-based; conditions: Plasmodium falciparum
Source text: Assay 2) Determination of Whole Cell Activity Against the Plasmodium falciparum Parasite
Compounds can be evaluated for whole cell actvity against the Plasmodium falciparum parasite according to the procedure described in Sijwali S. and Rosenthal P. J., (2004) Proceedings of the National Academy of Sciences of the United States of America (PNAS) 101 (13), 4384-4389 (see in particular “Measurement of Parasite Growth rates and Inhibitor Sensitivity” on page 4385); IC50 values can be calculated as described in Singh A. and Rosenthal P. J., (2001) Antimicrobial Agents and Chemotherapy 45(3), 949-951 (see in particular page 950, first column); synchronised parasites can be prepared as described in Divo A. A. et al., (1985) Protozool. 32, 59-64.

Sequence of Falcipain-3 (Q8IIL0 243-492): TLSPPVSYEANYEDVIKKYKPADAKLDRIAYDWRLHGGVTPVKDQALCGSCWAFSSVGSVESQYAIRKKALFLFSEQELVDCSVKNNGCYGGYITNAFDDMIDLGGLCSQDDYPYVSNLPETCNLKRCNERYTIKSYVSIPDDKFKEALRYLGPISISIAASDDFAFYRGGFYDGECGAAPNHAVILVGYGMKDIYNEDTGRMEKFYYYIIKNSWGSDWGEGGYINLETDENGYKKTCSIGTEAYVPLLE
Sequence of Falcipain-2 (Q8I6U4 244-484): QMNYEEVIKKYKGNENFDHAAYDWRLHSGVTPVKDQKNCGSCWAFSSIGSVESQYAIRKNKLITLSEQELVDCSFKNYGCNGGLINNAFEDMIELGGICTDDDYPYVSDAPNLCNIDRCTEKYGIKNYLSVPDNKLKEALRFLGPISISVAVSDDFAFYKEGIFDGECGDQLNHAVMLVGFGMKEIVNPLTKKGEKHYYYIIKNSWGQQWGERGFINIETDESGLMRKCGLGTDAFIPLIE
Sequence of Cathepsin S (P25774 115-331): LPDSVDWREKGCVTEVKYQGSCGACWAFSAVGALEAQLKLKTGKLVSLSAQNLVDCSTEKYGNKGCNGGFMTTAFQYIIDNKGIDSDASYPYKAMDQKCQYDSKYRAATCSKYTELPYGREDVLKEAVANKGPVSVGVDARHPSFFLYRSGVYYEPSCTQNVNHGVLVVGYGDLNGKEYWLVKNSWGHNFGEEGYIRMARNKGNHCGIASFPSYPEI

SMILES | pIC50 (Cathepsin S) | pIC50 (Cathepsin K) | pIC50 (Falcipain-3) | pIC50 (Falcipain-2) | pIC50 (Falcipain-2; parasitic recombinant enzyme, H-D-VLR-AFC substrate, pH 5.5, endpoint read, read-out: Falcipain-2 IC50) | pIC50 [1] | pIC50 (Falcipain-3; parasitic recombinant enzyme, H-D-VLR-AFC substrate, pH 5.5, endpoint read, read-out: Falcipain-3 IC50)
CN1CCN(C2CCN(Cc3ccc(C(=O)NN(c4nc(C#N)ncc4Br)C4CCCCC4)cc3)CC2)CC1 [Example 17, N′-(5-bromo-2-cyano-4-pyrimidinyl)-N′-cyclohexyl-4-{[4-(4-methyl-1-piperazinyl)-1-piperidinyl]methyl}benzohydrazide trifluoroacetate] | > 6.00 | > 8.82 | 7.82 to 8.60 | > 9.00 |  |  | 
CN1CCN(Cc2ccc(C(=O)NN(c3nc(C#N)ncc3Cl)C3CCCC3)cc2)CC1 [Example 50, N′-(5-chloro-2-cyano-4-pyrimidinyl)-N′-cyclopentyl-4-[(4-methyl-1-piperazinyl)methyl]benzohydrazide trifluoroacetate] | > 6.70 | > 8.82 | 6.82 to 7.82 |  | > 9.00 |  | 
CC1CCC(N(NC(=O)c2ccc(CN3CCN(CC4CCN(C)CC4)CC3)cc2)c2nc(C#N)ncc2Br)C1 (mixture of isomers) [Example 5, N′(5-bromo-2-cyano-4-pyrimidinyl)-N′-(3-methylcyclopentyl)-4-({4-[(1-methyl4-piperidinyl)methyl]-1-piperazinyl}methyl)benzohydrazide trifluoroacetate] | > 6.00 | > 8.82 | 6.82 to 7.82 | > 9.00 |  |  | 
CN1CCN(Cc2cccc(-c3cncc(C(=O)NN(c4nc(C#N)ncc4Br)C4CCCCC4)c3)c2)CC1 [Example 47, N′-(5-bromo-2-cyano-4-pyrimidinyl)-N′-cyclohexyl-5-{3-[(4-methyl-1-piperazinyl)methyl]phenyl}-3-pyridinecarbohydrazide trifluoroacetate] | > 6.70 | > 8.82 | 7.82 to 8.60 | > 9.00 |  |  | 
CC(C)(C)N(CCO)Cc1ccc(C(=O)NN(c2nc(C#N)ncc2Cl)C2CCCC2)cc1 [Example 82, N′-(5-chloro-2-cyano-4-pyrimidinyl)-N′-cyclopentyl-4-{[(1,1-dimethylethyl)(2-hydroxyethyl)amino]methyl}benzohydrazide trifluoroacetate] |  |  | 7.82 to 8.60 | > 9.00 |  | 7.82 to 8.60 | 
CN1CCN(Cc2ccc(-c3ccc(C(=O)NN(c4nc(C#N)ncc4Br)C4CCCCC4)cn3)cc2)CC1 [Example 44, N′-(5-bromo-2-cyano-4-pyrimidinyl)-N′-cyclohexyl-6-{4-[(4-methyl-1-piperazinyl)methyl]phenyl}-3-pyridinecarbohydrazide trifluoroacetate] | > 6.70 | > 8.82 | 7.82 to 8.60 | > 9.00 |  |  | 
CN1CCCC(CN2CCN(Cc3cccc(C(=O)NN(c4nc(C#N)ncc4Br)C4CCCCC4)c3)CC2)C1 (stereo not shown) [Example 27, N′-(5-bromo-2-cyano-4-pyrimidinyl)-N′-cyclohexyl-3-({4-[(1-methyl-3-piperidinyl)methyl]-1-piperazinyl}methyl)benzohydrazide trifluoroacetate] | > 6.00 | > 8.82 | 7.82 to 8.60 | > 9.00 |  |  | 
CN1CCN(Cc2ccc(-c3ccc(C(=O)NN(c4nc(C#N)ncc4Br)C4CCCC4)cn3)cc2)CC1 [Example 46, N′-(5-bromo-2-cyano-4-pyrimidinyl)-N′-cyclopentyl-6-{4-[(4-methyl-1-piperazinyl)methyl]phenyl}-3-pyridinecarbohydrazide trifluoroacetate] | > 6.70 | > 8.82 | 6.82 to 7.82 | > 9.00 |  |  | 
CN1CCN(C2CCN(Cc3ccc(C(=O)NN(c4nc(C#N)ncc4Cl)C4CCCCC4)cc3)CC2)CC1 [Example 41, N′-(5-chloro-2-cyano-4-pyrimidinyl)-N′-cyclohexyl-4-{([4-(4-methyl-1-piperazinyl)-1-piperidinyl]methyl}benzohydrazidedihydrochloride] | > 6.70 | > 8.82 |  |  |  |  | 
CN1CCN(C2CCN(Cc3ccc(C(=O)NN(c4nc(C#N)ncc4Cl)C4CCCCC4)cc3)CC2)CC1 [Example 40, N′-(5-chloro-2-cyano-4-pyrimidinyl)-N′-cyclohexyl-4-{[4-(4-methyl-1-piperazinyl)-1-piperidinyl]methyl}benzohydrazide] | > 6.70 | > 8.82 |  | > 9.00 |  |  | 7.82 to 8.60
CN1CCN(Cc2ccc(C(=O)NN(c3nc(C#N)ncc3Br)C3CCCC3)cc2)CC1 [Example 1, N′-(5-bromo-2-cyano-4-pyrimidinyl)-N′-cyclopentyl-4-[(4-methyl-1-piperazinyl)methyl]benzohydrazide trifluoroacetate] | > 6.70 | > 8.82 |  | > 9.00 |  |  | 
CC1CCC(N(NC(=O)c2ccc(CN3CCC(N4CCN(C)CC4)CC3)cc2)c2nc(C#N)ncc2Br)C1 (mixture of isomers) [Example 4, N′-(5-bromo-2-cyano-4-pyrimidinyl)-N′-(3-methylcyclopentyl)-4-{[4-(4-methyl-1-piperazinyl)-1-piperidinyl]methyl}benzohydrazide trifluoroacetate] | > 6.00 | > 8.82 | 8.60 to 9.00 | > 9.00 |  |  | 
CN1CCN(Cc2ccc(C(=O)NN(c3nc(C#N)ncc3Cl)C3CCCCC3)cc2)CC1 [Example 51, N′-(5-chloro-2-cyano-4-pyrimidinyl)-N′-cyclohexyl-4-[(4-methyl-1-piperazinyl)methyl]benzohydrazide trifluoroacetate] | > 6.70 | > 8.82 | 6.82 to 7.82 | 8.60 to 9.00 |  |  | 
CC(=O)N1CCC(N(NC(=O)c2ccc(CN3CCC(C(=O)N4CCN(C)CC4)CC3)cc2)c2nc(C#N)ncc2Br)CC1 [Example 49, N′-(1-acetyl-4-piperidinyl)-N′-(5-bromo-2-cyano-4-pyrimidinyl)-4-({4-[(4-methyl-1-piperazinyl)carbonyl]-1-piperidinyl}methyl)benzohydrazide trifluoroacetate] | > 6.70 | > 7.77 | 6.82 to 7.82 | > 9.00 |  |  | 
CN1CCC(CN2CCN(Cc3cccc(C(=O)NN(c4nc(C#N)ncc4Br)C4CCCCC4)c3)CC2)CC1 [Example 28, N′-(5-bromo-2-cyano-4-pyrimidinyl)-N′-cyclohexyl-3-({4-[(1-methyl-4-piperidinyl)methyl]-1-piperazinyl}methyl)benzohydrazide trifluoroacetate] | > 6.00 |  | 7.82 to 8.60 | > 9.00 |  |  | 
